According to PMC10610198, “Inhibitory Activity of Natural cis-Khellactone on Soluble Epoxide Hydrolase and Proinflammatory Cytokine Production in Lipopolysaccharides-Stimulated RAW264.7 Cells” (Plants, 2023):

Molecular target: T1, soluble epoxide hydrolase (sEH) (Homo sapiens, UniProt P34913)
T1 construct: gene EPHX2
T1 sequence (P34913 1-555): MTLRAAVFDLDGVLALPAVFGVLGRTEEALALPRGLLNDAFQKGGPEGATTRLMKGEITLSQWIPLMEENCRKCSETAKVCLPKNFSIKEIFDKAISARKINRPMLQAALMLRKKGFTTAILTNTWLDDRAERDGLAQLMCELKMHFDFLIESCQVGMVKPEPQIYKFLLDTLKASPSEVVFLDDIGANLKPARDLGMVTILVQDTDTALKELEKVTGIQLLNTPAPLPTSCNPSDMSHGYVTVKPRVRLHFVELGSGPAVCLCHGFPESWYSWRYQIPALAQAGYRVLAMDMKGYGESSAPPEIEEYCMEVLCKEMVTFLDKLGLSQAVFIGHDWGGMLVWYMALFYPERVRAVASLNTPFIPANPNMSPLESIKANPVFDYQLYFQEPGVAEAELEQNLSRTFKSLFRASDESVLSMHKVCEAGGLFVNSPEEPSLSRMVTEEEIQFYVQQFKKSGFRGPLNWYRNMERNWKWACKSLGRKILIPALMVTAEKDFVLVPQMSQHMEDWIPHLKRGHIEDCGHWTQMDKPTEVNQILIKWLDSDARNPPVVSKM
Assay: fluorescent PHOME hydrolysis assay with recombinant sEH; Lineweaver–Burk and Dixon plots
Assay type: biochemical

A Ki of 3.5 µM was found for `CC1(C)Oc2ccc3ccc(=O)oc3c2[C@H](O)[C@@H]1O` [compound 1, (−)cis-Khellactone] in this work.
